Laboratory results as given in patent US9302999B2, “Substituted triazoles as herbicides” (E. I. DU PONT DE NEMOURS AND COMPANY, priority 2012, dated 2016).

How the values were obtained:
Type in all cases: in vivo
[1] = tested on: bluegrass (annual bluegrass, Poa annua); test: Test D pre-/postemergence: bluegrass
Procedure, shortened: (§1)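 Species were sown in silt loam and sprayed preemergence, or grown in peat/vermiculite medium and sprayed postemergence at the 1- to 4-leaf stage (2–18 cm), with compounds in a surfactant-containing solvent. Injury was visually rated against untreated controls after 14–21 days, on a 0 (no effect) to 100 (complete control) scale.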

[2] = tested on: galium (catchweed bedstraw, Galium aparine); test: Test D pre-/postemergence: galium; settings: Postemergence; for Plant response rating, Galium: 16 g ai/ha, scale 0 to 100
Procedure, shortened: as §1

[3] = tested on: mustard, wild (wild mustard, Sinapis arvensis); test: Test D pre-/postemergence: mustard, wild
Procedure, shortened: as §1

[4] = tested on: windgrass (Apera spica-venti); test: Test D pre-/postemergence: windgrass
Procedure, shortened: as §1

[5] = tested on: crabgrass, Brazil (Brazilian crabgrass, Digitaria horizontalis); test: Test F pre-/postemergence: crabgrass, Brazil
Source text: Seeds of plant species selected from corn (Zea mays), soybean (Glycine max), velvetleaf (Abutilon theophrasti), lambsquarters (Chenopodium album), poinsettia, wild (wild poinsettia, Euphorbia heterophylla), pigweed, palmer (palmer pigweed, Amaranthus palmeri), waterhemp (common waterhemp, Amaranthus rudis), surinam grass (Brachiaria decumbens), crabgrass, Brazil (Brazilian crabgrass, Digitaria horizontalis), panicum, fall (fall panicum Panicum dichotomiflorum), crabgrass, large (large crabgrass, Digitaria sanguinalis), foxtail, giant (giant foxtail, Setaria faberii), foxtail, green (green foxtail Setaria viridis), goosegrass (Eleusine indica), ragweed (common ragweed, Ambrosia elatior), barnyardgrass (Echinochloa crus-galli), sandbur (southern sandbur, Cenchrus echinatus), arrowleaf sida (Sida rhombifolia), ryegrass, Italian (Italian ryegrass, Lolium multiflorum), dayflower, VA (Virginia (VA) dayflower, Commelina virginica), field bindweed (Convolvulus arvensis), cocklebur (common cocklebur, Xanthium strumarium), morningglory (Ipomoea coccinea), nightshade (eastern black nightshade, Solanum ptycanthum), kochia (Kochia scoparia), nutsedge, yellow (yellow nutsedge, Cyperus esculentus), johnsongrass (Sorghum halepense), smartweed (ladysthumb smartweed, Polygonum persicaria), and beggarticks (hairy beggarticks, Bidens pilosa), were planted into a silt loam soil and treated preemergence with test chemicals formulated in a non-phytotoxic solvent mixture which included a surfactant. At the same time, plants selected from these crop and weed species and also pigweed (Amaranthus retroflexus), waterhemp_RES1 (ALS/Triazine resistant common waterhemp, Amaranthus rudis) and waterhemp_RES2 (ALS/HPPD resistant common waterhemp, Amaranthus rudis) were planted in pots containing a planting medium comprising spaghnum peat moss, vermiculite, wetting agent and starter nutrients treated with postemergence applications of some of the test chemicals formulated in the same manner. Plants ranged in height from 2 to 18 cm for postemergence treatments (1- to 4-leaf stage).
Treated plants and controls were maintained in a greenhouse for 14 to 21 days, after which time all species were compared to controls and visually evaluated. Plant response ratings, summarized in Table E, are based on a scale of 0 to 100 where 0 is no effect and 100 is complete control. A dash (-) response means no test result.

[6] = tested on: Oilseed Rape; test: Test C preemergence: oilseed rape; settings: scale 0 (no effect) to 100 (complete control)
[7] = Postemergence, 31 g ai/ha, scale 0 to 100 (0 no effect, 100 complete control)
[8] = Postemergence, 62 g ai/ha, scale 0 to 100 (0 no effect, 100 complete control)
[9] = Postemergence, 125 g ai/ha, scale 0 to 100, 0 no effect, 100 complete control
[10] = Postemergence, 16 g ai/ha, scale 0 to 100
[11] = Preemergence, 16 g ai/ha, scale 0 to 100, 0 no effect, 100 complete control
[12] = Preemergence, 31 g ai/ha, scale 0 to 100, 0 no effect, 100 complete control
[13] = Preemergence, 62 g ai/ha, scale 0 to 100
[14] = Preemergence, 125 g ai/ha, scale 0 to 100
[15] = 31 g ai/ha, scale 0 to 100 (0 no effect, 100 complete control)
[16] = 62 g ai/ha, scale 0 to 100 (0 no effect, 100 complete control)
[17] = 125 g ai/ha, scale 0 to 100, 0 no effect, 100 complete control
[18] = Postemergence, 31 g ai/ha, scale 0 to 100
[19] = Preemergence, 250 g ai/ha, scale 0 to 100

| Compound | Plant response rating: Bluegrass [1, 7] | Plant response rating: Bluegrass [1, 8] | Plant response rating: Bluegrass [1, 9] | Plant response rating, Bluegrass [1, 10] | Plant response rating, Bluegrass [1, 11] | Plant response rating, Bluegrass [1, 12] | Plant response rating, Bluegrass [1, 13] | Plant response rating, Bluegrass [1, 14] | Plant response rating: Galium [2, 15] | Plant response rating: Galium [2, 16] | Plant response rating: Galium [2, 17] | Plant response rating, Galium [2] | Plant response rating: Mustard, Wild [3, 7] | Plant response rating: Mustard, Wild [3, 8] | Plant response rating: Mustard, Wild [3, 9] | Plant response rating, Mustard, Wild [3, 10] | Plant response rating, Crabgrass, Brazil [5, 13] | Plant response rating, Crabgrass, Brazil [5, 14] | Plant response rating, Crabgrass, Brazil [5, 19] | Plant response rating, Oilseed Rape ([6]; 31 g ai/ha) | further results |
| --- | --- | --- | --- | --- | --- | --- | --- | --- | --- | --- | --- | --- | --- | --- | --- | --- | --- | --- | --- | --- | --- |
| Cc1nn(-c2ccc(C(F)(F)F)c(F)c2)nc1Oc1ccnc(C(F)(F)F)c1 [Compound 148] | 15 | 25 | 70 | 5 | 0 | 15 | 60 | 50 | 70 | 70 | 75 | 60 | 100 | 100 | 100 | 55 | 100 | 100 | 100 | – | Plant response rating, Mustard, Wild [3, 11]: 20; Plant response rating, Mustard, Wild [3, 12]: 15; Plant response rating, Mustard, Wild [3, 13]: 55; Plant response rating, Mustard, Wild [3, 14]: 95; Plant response rating: Windgrass [4, 8]: 60; Plant response rating: Windgrass [4, 9]: 80; Plant response rating, Windgrass [4, 10]: 15; Plant response rating, Windgrass [4, 18]: 30; Plant response rating, Windgrass [4, 11]: 5; Plant response rating, Windgrass [4, 12]: 10; Plant response rating, Windgrass [4, 13]: 35; Plant response rating, Windgrass [4, 14]: 90; Plant response rating, Crabgrass, Brazil [5, 11]: 100; Plant response rating, Crabgrass, Brazil [5, 12]: 100 |
| CCc1nn(-c2ccc(C(F)(F)F)cc2)nc1Cc1ccnc(C(F)(F)F)c1 [Compound 155] | 35 | 75 | 90 | 20 | 15 | 15 | 60 | 85 | 70 | 70 | 75 | 65 | 100 | 100 | 100 | 80 | 100 | 100 | 100 | – | Plant response rating, Mustard, Wild [3, 11]: 55; Plant response rating, Mustard, Wild [3, 12]: 55; Plant response rating, Mustard, Wild [3, 13]: 100; Plant response rating, Mustard, Wild [3, 14]: 100; Plant response rating: Windgrass [4, 8]: 80; Plant response rating: Windgrass [4, 9]: 95; Plant response rating, Windgrass [4, 10]: 20; Plant response rating, Windgrass [4, 18]: 70; Plant response rating, Windgrass [4, 11]: 5; Plant response rating, Windgrass [4, 12]: 10; Plant response rating, Windgrass [4, 13]: 85; Plant response rating, Windgrass [4, 14]: 100 |
| FCc1nn(-c2ccc(F)cc2)nc1Oc1ccnc(C(F)(F)F)c1 [Compound 160] | – | – | – | – | – | – | – | – | – | – | – | – | – | – | – | – | – | – | – | – | Plant response rating, Oilseed Rape ([6]; 16 g ai/ha): 0 |
| CCOc1nn(-c2ccc(C(F)(F)F)cc2)nc1Cc1ccnc(C(F)(F)F)c1 [Compound 164, 4-[[5-ethoxy-2-[4-(trifluoromethyl)phenyl]-2H-1,2,3-triazol-4-yl]methyl]-2-(trifluoromethyl)pyridine] | – | – | – | – | – | – | – | – | – | – | – | – | – | – | – | – | – | – | – | 5 | – |
| CCCc1nn(-c2ccc(F)cc2)nc1Oc1ccnc(C(F)(F)F)c1 [Compound 168] | – | – | – | – | – | – | – | – | – | – | – | – | – | – | – | – | – | – | – | 100 | – |
| CCc1nn(-c2ccc(C(F)(F)F)cc2)nc1Oc1ccnc(C(F)(F)F)c1 [Compound 169] | – | – | – | – | – | – | – | – | – | – | – | – | – | – | – | – | 100 | 100 | 100 | 50 | Plant response rating, Crabgrass, Brazil ([5]; Postemergence, 250 g ai/ha, scale 0 to 100): 30; Plant response rating, Crabgrass, Brazil [5, 10]: 20; Plant response rating, Crabgrass, Brazil [5, 18]: 20; Plant response rating, Crabgrass, Brazil ([5]; Postemergence, 62 g ai/ha, scale 0 to 100): 20; Plant response rating, Crabgrass, Brazil ([5]; Postemergence, 125 g ai/ha, scale 0 to 100): 20; Plant response rating, Crabgrass, Brazil [5, 11]: 100; Plant response rating, Crabgrass, Brazil [5, 12]: 100 |
